Measurements published in US7138543B2, “Thiolalkyl benzoic acid derivatives” (Guilford Pharmaceuticals Inc., priority 2001, dated 2006).

How the values were obtained:
[1] = system: rats with unilaterally transected optic nerve; assay: Optic nerve transection (optic nerve fiber counting); assay type: in vivo, Rattus norvegicus; conditions: for FIBER NUMBER: 10 mg/kg daily intraperitoneal
Protocol: All experiments complied with the Association for Research in Vision and Ophthalmology Statement for the Use of Animals in Ophthalmic and Vision Research. 82 male Brown Norway rats (Rattus norvegicus), each weighing approximately 250 gm, were treated using procedures approved by the Animal Care Committee of the Johns Hopkins University School of Medicine. The rats were housed with a 12 hour light/12 hour dark cycle and fed ad libitum.
OPTIC NERVE TRANSECTION: The optic nerve was transected unilaterally in 26 rats under intraperitoneal pentobarbital anesthesia. The conjunctiva was opened with scissors and the optic nerve exposed by traction on extraocular muscles. The transection was performed with microscissors 5 mm posterior to the globe, with specific attention to avoidance of injury to major ocular blood vessels. Immediately after transection, the retina was examined ophthalmoscopically to assure that the retinal arterial blood supply was not disrupted. The conjunctiva was closed with absorbable suture and the eye dressed with antibiotic ointment. Beginning on the day of transection, the rats were treated daily with intraperitoneal injections of either a vehicle (9 rats with 50 mM HEPES-buffered saline) or a NAALADase inhibitor (8 rats with 10 mg/kg of Compound A and 9 rats with 10 mg/kg of Compound B). 5 saline treated rats, 3 Compound A treated rats, and 4 Compound B treated rats were sacrificed at 2 weeks, and the remaining rats at 4 weeks, after transection.
OPTIC NERVE COUNTING: The rats were sacrificed by exsanguination under deep pentobarbital anesthesia. They were perfused through the heart with 2% paraformaldehyde/2% glutaraldehyde in 0.1 M phosphate buffer, pH 7.2, and the eyes with attached optic nerves were removed. A cross-section of the optic nerve from both experimental (glaucoma or transection) and control eyes was removed 1.5 mm posterior to the globe, 1 mm in thickness, and post-fixed in 2% osmium tetroxide in buffer. These were processed into epoxy resin, sectioned at 1 micron and stained with toluidine blue.
The area of the optic nerve cross-section was measured by outlining its outer border at 10× magnification on an image analysis system (Universal Imaging Corp., Westchester, Pa.) with Synsys digital camera and Metamorph software. Three area measurements were taken and the mean value was determined. To measure the density and fiber diameter distributions, images were captured with a 100× phase contrast objective from 10 different areas of each nerve. These were edited to eliminate non-neural objects and the size of each axon internal to the myelin sheath (its minimum diameter) and the density of axons/square mm were calculated for each image and nerve. The mean density was multiplied by total nerve area to yield fiber number for each nerve. The total fiber number in glaucoma or transection nerves was compared to the normal, fellow eye of each rat to yield a percent loss value. The number of axons counted among the 10 images was an approximately 20% sample of the 80–90,000 axons in normal rat nerves. The person measuring axon number was masked to the protocol conducted on the nerves.

[2] = system: transgenic G1H mice; assay: Onset of ALS in transgenic mice model of FALS; assay type: in vivo; conditions: for DISEASE ONSET: 50 mg/kg daily intraperitoneal
Protocol: Effect of NAALADase Inhibitors on Onset of ALS
The effect of NAALADase inhibitors on the onset of ALS was tested using the transgenic mice model of familial amyotrophic lateral sclerosis (“FALS”), which is detailed in Gurney, M., Annals of Neurology (1996) 39:147–157, and otherwise well known in the art. One month old transgenic G1H mice were treated with daily intraperitoneal injections of a vehicle (50 mM HEPES-buffered saline) or a NAALADase inhibitor (50 mg/kg Compound A). Clinical symptoms of the mice were monitored daily. The onset of clinical disease was scored by examining each mouse for its shaking of limbs when suspended in the air by its tail, cross spread of spinal reflexes, hindlimb paralysis, body weight and wheel running activity.

[3] = 2 weeks survival after transection
[4] = 4 weeks survival after transection

Compound: O=C(O)CCC(CP(=O)(O)Cc1c(F)c(F)c(F)c(F)c1F)C(=O)O (stereo not drawn) [Compound A]
- remaining axons relative to the saline-treated rats ([1]; 2 weeks after transection): 3 times
- PERCENT DIFFERENCE in fiber number [1, 3]: 65.3 ± 30.9%
- FIBER NUMBER [1, 3]: 26,426 ± 23,025
- PERCENT DIFFERENCE in fiber number [1, 4]: 82.4 ± 8.9%
- FIBER NUMBER [1, 4]: 13,599 ± 7,868
- DIFFERENCE in disease onset vs vehicle ([2]; Study 1): 32
- DISEASE ONSET ([2]; Study 1): 221 days
- DIFFERENCE in disease onset vs vehicle ([2]; Study 2): 25
- DISEASE ONSET ([2]; Study 2): 166 days
